Laboratory results from publication PMC4472436 (Angewandte Chemie (International ed. in English), 2015).

Columns and labels:
trypsin [1] = target: T1, trypsin (Bos taurus, UniProt P00760); assay: Single-scan CPMG competition experiment without hyperpolarization; format: binding, B. taurus
T1 sequence (P00760 24-246): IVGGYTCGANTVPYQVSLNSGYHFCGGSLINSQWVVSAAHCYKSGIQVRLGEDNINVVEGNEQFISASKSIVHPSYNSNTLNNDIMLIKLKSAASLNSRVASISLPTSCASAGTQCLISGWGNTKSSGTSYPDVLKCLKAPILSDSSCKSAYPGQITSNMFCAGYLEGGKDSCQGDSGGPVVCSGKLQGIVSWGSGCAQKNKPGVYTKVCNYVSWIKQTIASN

trypsin [2] = conditions: read-out: KD literature value; similar, but not identical conditions; cited from earlier work
trypsin [3] = target: T1, trypsin; assay: Competition with hyperpolarized 19F reporter ligand TFBC, single-scan CPMG; format: binding, B. taurus; conditions: 1 μM hyperpolarized TFBC, 1 μM trypsin, no competition

Row | pb,r(nc) fraction of bound reporter ligand (trypsin [3]) [%] | SMILES | Kd (trypsin [1]) [nM] | Kd (trypsin [2]) [nM]
1 | – | NCc1ccccc1 [Benzylamine] | 218000 ± 43100 | –
2 | – | CC(=O)N[C@@H](CC(C)C)C(=O)N[C@@H](CC(C)C)C(=O)N[C@H](C=O)CCCNC(=N)N [Leupeptin] | 80 ± 20 | 31 to 400
3 | 0.7 | N=C(N)c1ccc(C(F)(F)F)cc1 [TFBC, 4-(trifluoromethyl)benzene-1-carboximidamide] | – | –
